Data from article PMC4890880 (ACS infectious diseases, 2016).

Legend:
[1] = test system: Plasmodium berghei (Pb-Luc) exoerythrocytic-stage parasites; conditions: for normalised signal at concentration 10 (first series): concentration 10, first series of dose columns; for normalised signal at concentration 10 (second series): concentration 10, second series of dose columns; for IC50: read-out: PbLuc_IC50, Broad compounds, dose response top concentration 10; for IC50 / PbLuc_max_inhibition (%): sheet "2nd round"
HepG2-A16-CD81EGFP cells = conditions: sheet "2nd round"; for IC50: read-out: Tox_IC50, HepG2 cytotoxicity

| Compound | normalised signal at concentration 0.000508053 (first series) [1] | normalised signal at concentration 0.000508053 (second series) [1] | normalised signal at concentration 0.00152416 (first series) [1] | normalised signal at concentration 0.00152416 (second series) [1] | normalised signal at concentration 0.00457247 (first series) [1] | normalised signal at concentration 0.00457247 (second series) [1] | normalised signal at concentration 0.0137174 (first series) [1] | normalised signal at concentration 0.0137174 (second series) [1] | normalised signal at concentration 0.0411523 (first series) [1] | normalised signal at concentration 0.0411523 (second series) [1] | normalised signal at concentration 0.123457 (first series) [1] | normalised signal at concentration 0.123457 (second series) [1] | normalised signal at concentration 0.37037 (first series) [1] | normalised signal at concentration 0.37037 (second series) [1] | normalised signal at concentration 1.11111 (first series) [1] | normalised signal at concentration 1.11111 (second series) [1] | normalised signal at concentration 3.33333 (first series) [1] | normalised signal at concentration 3.33333 (second series) [1] | normalised signal at concentration 10 (first series) [1] | normalised signal at concentration 10 (second series) [1] | other results |
| --- | --- | --- | --- | --- | --- | --- | --- | --- | --- | --- | --- | --- | --- | --- | --- | --- | --- | --- | --- | --- | --- |
| C[C@@H]1CCCCO[C@@H](CN(C)S(=O)(=O)c2ccc(F)cc2)[C@H](C)CN([C@@H](C)CO)C(=O)c2cc(N(C)C)ccc2O1 [BRD-K44445002-001-01-6] | 0.8297 | 0.9522 | 0.9815 | 1.174 | 0.6933 | 0.8769 | 0.8541 | 1.037 | 1.012 | 1.038 | 1.095 | 0.8137 | 0.8834 | 0.9753 | 1.034 | 0.8748 | 0.858 | 0.7361 | 0.7308 | 0.7674 | IC50 [1]: > 10 µM; PbLuc_max_inhibition (%) [1]: 31%; IC50 (HepG2-A16-CD81EGFP cells): > 10 µM; Tox_max_inhibition (%) (HepG2-A16-CD81EGFP cells): 2% |
| C[C@@H]1CCCCO[C@H](CN(C)S(=O)(=O)c2ccc(F)cc2)[C@H](C)CN([C@H](C)CO)C(=O)c2cc(N(C)C)ccc2O1 [BRD-K77041516-001-01-2] | 1.187 | 0.9225 | 0.8332 | 0.8694 | 0.9468 | 0.8206 | 0.8125 | 0.9272 | 0.9511 | 0.9568 | 1.006 | 0.7947 | 0.8766 | 1.201 | 1.15 | 1.082 | 0.9005 | 1.135 | 0.8572 | 0.9617 | IC50 [1]: > 10 µM; PbLuc_max_inhibition (%) [1]: 21%; IC50 (HepG2-A16-CD81EGFP cells): > 10 µM; Tox_max_inhibition (%) (HepG2-A16-CD81EGFP cells): 4.38% |
| O=C(Nc1ccccc1F)N1CCCCN2[C@@H](CO)[C@@H](c3ccc(/C=C/c4ccccc4)cc3)[C@@H]2C1 [BRD-K75724375-001-01-5] | 0.9105 | 0.9278 | 1.073 | 0.9037 | 0.819 | 0.9578 | 0.8286 | 0.9852 | 0.8408 | 0.7698 | 0.9337 | 1.085 | 0.7789 | 1.01 | 1.025 | 0.8416 | 0.8686 | 0.672 | 0.5018 | 0.4819 | IC50 [1]: > 10 µM; PbLuc_max_inhibition (%) [1]: 52%; IC50 (HepG2-A16-CD81EGFP cells): > 10 µM; Tox_max_inhibition (%) (HepG2-A16-CD81EGFP cells): 3.77% |
